The record followed here is PubChem BioAssay AID493139 (Sanford-Burnham Center for Chemical Genomics, 2011).

Where “and” joins values, the source holds several entries; their conditions need not be identical. Equal entries are not always repeated. Calls of active or inactive are those of the source. How the calls were made is not given here.

In this experiment the target is Alkaline phosphatase, germ cell type (Homo sapiens) (UniProt P10696). In words: placental-like alkaline phosphatase activators or inhibitors – biochemical, human placental-like ALPPL2 isozyme, selectivity assay for mouse IAP activator project, SAR follow-up (AID 493139). Particulars: purified human placental-like alkaline phosphatase, enzymatic activity.
Sequence of Alkaline phosphatase, germ cell type (Homo sapiens) (P10696 whole entry, looked up): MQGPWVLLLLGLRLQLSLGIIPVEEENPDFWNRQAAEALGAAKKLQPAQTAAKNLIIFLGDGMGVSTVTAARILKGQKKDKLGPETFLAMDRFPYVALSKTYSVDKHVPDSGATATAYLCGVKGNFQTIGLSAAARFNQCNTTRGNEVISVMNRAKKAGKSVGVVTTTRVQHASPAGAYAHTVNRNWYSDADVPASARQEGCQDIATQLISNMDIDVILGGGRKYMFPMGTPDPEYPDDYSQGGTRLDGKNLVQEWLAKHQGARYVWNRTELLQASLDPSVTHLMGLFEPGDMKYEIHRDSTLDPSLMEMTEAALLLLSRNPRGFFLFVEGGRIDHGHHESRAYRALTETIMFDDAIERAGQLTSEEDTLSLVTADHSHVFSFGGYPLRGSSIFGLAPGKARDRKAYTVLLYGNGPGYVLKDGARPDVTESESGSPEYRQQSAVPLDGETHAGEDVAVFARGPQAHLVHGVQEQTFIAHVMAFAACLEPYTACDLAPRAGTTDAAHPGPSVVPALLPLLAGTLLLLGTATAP
Consider `Cc1ccc(C)c(NC(=O)CCNS(=O)(=O)c2ccc3[nH]c(=O)oc3c2)c1`, for which the IC50 (inhibition of PLAP activity) is > 100 µM (inactive).

For the molecule `CC(C)N1CCC(=NNC(=O)c2cc(O)c(O)c(O)c2)CC1`, the IC50 (inhibition of PLAP activity) is > 100 µM (inactive) and 61.4 µM.

In the case of `O=[N+]([O-])c1ccc(NC(=S)NCCC(c2ccccc2)c2ccccc2)cc1`, the IC50 (inhibition of PLAP activity) was > 100 µM (inactive).

For `CC(C(=O)Nc1ccccc1C(=O)O)N1C(=O)/C(=C\c2ccco2)SC1=S` (stereo unspecified), the IC50 (inhibition of PLAP activity) was > 100 µM (inactive).

`COc1ccc(OC)c(NC(=O)CCNS(=O)(=O)c2ccc3[nH]c(=O)oc3c2)c1`: the IC50 (inhibition of PLAP activity) is > 100 µM (inactive).

With `Cc1ccc(NC(=O)CCNS(=O)(=O)c2ccc3[nH]c(=O)oc3c2)cc1F`, the IC50 (inhibition of PLAP activity) was > 100 µM (inactive).

Consider `O=C(NN=Cc1cccnc1)c1cc(O)c(O)c(O)c1`, for which the IC50 (inhibition of PLAP activity) was > 100 µM (inactive).

Take `O=C(CN1C(=O)/C(=C/c2ccco2)SC1=S)Nc1ccc(C(=O)O)cc1`: the IC50 (inhibition of PLAP activity) is > 100 µM (inactive).

As for `COc1ccc(NC(=O)CCNS(=O)(=O)c2ccc3[nH]c(=O)oc3c2)cc1Cl`, the IC50 (inhibition of PLAP activity) is > 100 µM (inactive).

Consider `N#Cc1c(SCC(=O)Nc2nccs2)sc2c(O)cc(=O)[nH]c12`, for which the IC50 (inhibition of PLAP activity) was > 100 µM (inactive).

On to `COc1cccc(NC(=O)CN(C)S(=O)(=O)c2ccc3[nH]c(=O)oc3c2)c1`, for which the IC50 (inhibition of PLAP activity) was > 100 µM (inactive).

Take `O=C(CN1C(=O)/C(=C/c2ccco2)SC1=S)Nc1ccc2nccnc2c1`: the IC50 (inhibition of PLAP activity) is > 100 µM (inactive).

Take `N#Cc1c(SCC(=O)Nc2ccccc2C(F)(F)F)sc2c(O)cc(=O)[nH]c12`: the IC50 (inhibition of PLAP activity) was > 100 µM (inactive).

For `O=C(CN1C(=O)/C(=C\c2ccco2)SC1=S)Nc1ccc(O)cc1C(=O)O`, the IC50 (inhibition of PLAP activity) was > 100 µM (inactive).

Regarding `O=C(CCN1C(=O)/C(=C/c2ccco2)SC1=S)Nc1ccc(O)cc1C(=O)O`, the IC50 (inhibition of PLAP activity) is > 100 µM (inactive).

On to `CC(C(=O)Nc1ccc(C(=O)O)c(O)c1)N1C(=O)/C(=C\c2ccco2)SC1=S` (stereo unspecified), for which the IC50 (inhibition of PLAP activity) was 32.6 µM.

As for `FC(F)(F)c1cccc(NC(=S)NCCC(c2ccccc2)c2ccccc2)c1`, the IC50 (inhibition of PLAP activity) was 63.5 µM.

Take `COc1cc([N+](=O)[O-])ccc1NC(=S)NCCC(c1ccccc1)c1ccccc1`: the IC50 (inhibition of PLAP activity) was > 100 µM (inactive).

With `COc1ccc(OC)c(NC(=O)CSc2sc3c(O)cc(=O)[nH]c3c2C#N)c1`, the IC50 (inhibition of PLAP activity) was > 100 µM (inactive).

As to `CCOc1ccc2nc(NC(=O)CN(C)S(=O)(=O)c3ccc4[nH]c(=O)oc4c3)sc2c1`, the IC50 (inhibition of PLAP activity) is > 100 µM (inactive).

With `CC(C(=O)NCCc1ccc(O)cc1)N1C(=O)/C(=C/c2ccco2)SC1=S` (stereo unspecified), the IC50 (inhibition of PLAP activity) is > 100 µM (inactive).

Consider `CC(C(=O)Nc1ccc(C(=O)O)cc1)N1C(=O)/C(=C\c2ccco2)SC1=S` (stereo unspecified), for which the IC50 (inhibition of PLAP activity) is 21.9 µM.

`O=C(CN1C(=O)/C(=C/c2ccco2)SC1=S)N[C@@H]1CSC[C@@H]1O`: the IC50 (inhibition of PLAP activity) is > 100 µM (inactive).

Turning to `O=C(N/N=C/C1CC=CCC1)c1cc(O)c(O)c(O)c1` (stereo unspecified), the IC50 (inhibition of PLAP activity) is > 100 µM (inactive).

For `CN1CCC(=NNC(=O)c2cc(O)c(O)c(O)c2)CC1`, the IC50 (inhibition of PLAP activity) was > 100 µM (inactive).

`O=C(NCCc1ccc(Cl)cc1)C1CCCN(S(=O)(=O)c2ccc3[nH]c(=O)oc3c2)C1` (stereo unspecified): the IC50 (inhibition of PLAP activity) is > 100 µM (inactive).

As for `N#Cc1cccc(NC(=O)CCNS(=O)(=O)c2ccc3[nH]c(=O)oc3c2)c1`, the IC50 (inhibition of PLAP activity) was > 100 µM (inactive).

Turning to `CC(C(=O)Nc1cccc(C(=O)O)c1)N1C(=O)/C(=C\c2ccco2)SC1=S` (stereo unspecified), the IC50 (inhibition of PLAP activity) is > 100 µM (inactive).

Consider `O=C(CCCN1C(=O)/C(=C/c2ccco2)SC1=S)Nc1ccccc1`, for which the IC50 (inhibition of PLAP activity) is > 100 µM (inactive).

Take `COc1ccc(N2CCN(C(=O)CN3C(=O)/C(=C\c4ccco4)SC3=S)CC2)cc1`: the IC50 (inhibition of PLAP activity) was > 100 µM (inactive).

As for `COc1cc(Cl)c(C)cc1NC(=O)CSc1sc2c(O)cc(=O)[nH]c2c1C#N`, the IC50 (inhibition of PLAP activity) is > 100 µM (inactive).

Turning to `COC(=O)c1ccc(C)c(NC(=O)CSc2sc3c(O)cc(=O)[nH]c3c2C#N)c1`, the IC50 (inhibition of PLAP activity) was > 100 µM (inactive).

With `CCOC(=O)N1CCN(S(=O)(=O)c2ccc3[nH]c(=O)oc3c2)CC1`, the IC50 (inhibition of PLAP activity) is > 100 µM (inactive).

`COc1cc(C(=O)NNC(=O)c2n[nH]c3ccccc23)cc(OC)c1OC`: the IC50 (inhibition of PLAP activity) is 21.9 µM.

For `CCOC(=O)NC(=O)CSc1sc2c(O)cc(=O)[nH]c2c1C#N`, the IC50 (inhibition of PLAP activity) was > 100 µM (inactive).

As for `COc1ccc(CNC(=O)CSc2sc3c(O)cc(=O)[nH]c3c2C#N)cc1OC`, the IC50 (inhibition of PLAP activity) was > 100 µM (inactive).

Turning to `Cc1ccc(NC(=O)CCNS(=O)(=O)c2ccc3[nH]c(=O)oc3c2)cc1`, the IC50 (inhibition of PLAP activity) was > 100 µM (inactive).

In the case of `COc1ccc(CNC(=O)CSc2sc3c(O)cc(=O)[nH]c3c2C#N)cc1`, the IC50 (inhibition of PLAP activity) is > 100 µM (inactive).

As for `O=C(N/N=C/c1ccccc1F)c1cc(O)c(O)c(O)c1`, the IC50 (inhibition of PLAP activity) is > 100 µM (inactive).

Consider `O=C(CN1C(=O)/C(=C/c2ccco2)SC1=S)Nc1cccc(C(=O)O)c1`, for which the IC50 (inhibition of PLAP activity) was > 100 µM (inactive).

For `COc1cc(C(=O)NNC(=S)NC(=O)c2ccccc2C)cc(OC)c1OC`, the IC50 (inhibition of PLAP activity) was 35.7 µM.
